Patent US4107308A, “Imidazo[1,5-d]-as-triazines” (American Cyanamid Company, priority 1977, dated 1978)

Tests used:
[1] = test system: spontaneous hypertensive rats; test: Anti-hypertensive test in conscious spontaneous hypertensive rats, mean arterial blood pressure by femoral artery puncture; assay type: in vivo, rat; conditions: 100 mg./kg. by gavage in 2% starch, second identical dose at the 24th hour, vehicle controls 166
Experimental: These compounds have been tested pharmacologically and found to have such properties with a desirable wide spread between does producing lowered blood pressure and toxic symptoms. In determining this effect of these compounds on hypertension, adult male, 16-20 weeks old, spontaneous hypertensive rats from Taconic Farms, Germantown, New York, weighing about 300 grams are used. The rats are dosed by gavage with the test compounds at the indicated dose in mg. per kg. of body weight. All doses of drug were suspended in 2% starch (2 ml./kg.). A second identical dose of the test compound is given at the 24th hour. The mean arterial blood pressure (MAP) of the conscious rats is measured directly by femoral artery puncture at the 28th hour.

[2] = test system: cyclic-AMP phosphodiesterase (mouse skin PDE); test: Mouse skin phosphodiesterase (PDE) inhibition test (A); assay type: biochemical; design: key: Active: A compound is considered active if it inhibits more than theophylline, that is, to 50% of control of 1 mM concentration of compound, or to 80% of control for 0.05 mM concentration of compound; conditions: final concentration of test compound 10 μg./ml.; epidermal homogenate supernatant of hairless mice

CCCc1nc(C)c2cnnc(SC)n12 [Example 61, 8-Methyl-4-(methylthio)-6-propylimidazo[1,5-d]-as-triazine]
herbicidal activity (Herbicidal activity): possesses herbicidal activity

CNc1nncc2cncn12 [4-methylamino-imidazo[1,5-d]-as-triazine, 4-Methylamino-imidazo[1,5-d]-as-triazine]
MAP (mm. Hg) 28th hour [1]: 131 mm. Hg

CN(C)CCNc1nncc2cncn12 [4-[(2-Dimethylaminoethyl)amino]-imidazo[1,5-d]-as-triazine]
Mouse Skin Phosphodiesterase (A) [2]: Active

c1cc(Nc2nncc3cncn23)n[nH]1 [4-(3-Pyrazolylamino)-imidazo[1,5-d]-as-triazine]
Mouse Skin Phosphodiesterase (A) [2]: Active | MAP (mm. Hg) 28th hour [1]: 134 mm. Hg
